Laboratory results reported in patent publication US10196363B2, “Dihydropyrimidin-2-one compounds and medical use thereof” (JAPAN TOBACCO INC., priority 2014, dated 2019).
Counter-ions that a name gives are not always drawn. Like-named read-outs stand apart in the source and are kept apart here.

How the values were obtained:
human RORγ = molecular target: T1, human RORγ (Homo sapiens, UniProt P51449); assay: In vitro assay of inhibitory effect against RORγ transcriptional activity (GAL4-hRORγ LBD luciferase reporter gene assay in CHO cells); type: cell-based; conditions: for hRORγ luciferase activity, %-of-control: value in parentheses beside the > EC50 bound, vehicle-control 0.2% DMSO alone = 100%
T1 construct: human RORγ, from Ser253 to Lys518; expressed in transfected cells; host or cells: CHO cells (Chinese hamster ovary), transient co-transfection with pG5-Luc
T1 sequence (P51449 253-518): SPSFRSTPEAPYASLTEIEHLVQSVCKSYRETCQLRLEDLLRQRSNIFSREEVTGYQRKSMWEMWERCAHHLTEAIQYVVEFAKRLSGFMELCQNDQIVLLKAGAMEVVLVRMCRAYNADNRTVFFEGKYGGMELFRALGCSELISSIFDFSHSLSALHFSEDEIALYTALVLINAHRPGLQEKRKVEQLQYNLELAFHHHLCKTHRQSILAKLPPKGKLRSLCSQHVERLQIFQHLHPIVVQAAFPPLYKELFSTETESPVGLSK
Method in brief: (§1)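 In this reporter assay, compounds acted for 2 days on transfected CHO cells carrying GAL4-RORγ LBD (human or mouse) with pG5-Luc. Percent values refer to the 0.2% DMSO control.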

mouse RORγ = molecular target: T2, mouse RORγ (Mus musculus, UniProt P51450); assay: In vitro assay of inhibitory effect against RORγ transcriptional activity (GAL4-mRORγ LBD luciferase reporter gene assay in CHO cells); type: cell-based; conditions: for mRORγ luciferase activity, %-of-control: value in parentheses beside the > EC50 bound, vehicle-control 0.2% DMSO alone = 100%
T2 construct: mouse RORγ, from Ile251 to Lys516; expressed in transfected cells; host or cells: CHO cells (Chinese hamster ovary), transient co-transfection with pG5-Luc
T2 sequence (P51450 251-516): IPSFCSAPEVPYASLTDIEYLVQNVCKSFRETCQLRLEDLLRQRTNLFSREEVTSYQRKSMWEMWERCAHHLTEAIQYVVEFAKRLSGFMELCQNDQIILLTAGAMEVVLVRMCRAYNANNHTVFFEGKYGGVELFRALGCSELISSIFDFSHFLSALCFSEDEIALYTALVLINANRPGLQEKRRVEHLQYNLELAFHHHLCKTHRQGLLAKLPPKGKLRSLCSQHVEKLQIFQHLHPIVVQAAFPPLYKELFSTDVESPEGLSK
Method in brief: as §1

[1] = GAL4-hRORγ LBD / pG5-Luc in CHO cells, 2 days incubation
[2] = GAL4-mRORγ LBD / pG5-Luc in CHO cells, 2 days incubation
[3] = GAL4-hRORγ LBD luciferase reporter, CHO cells, read-out: LUC EC50 hRORγ
[4] = GAL4-mRORγ LBD luciferase reporter, CHO cells, read-out: LUC EC50 mRORγ

## CC(C)C1=CN(CCC(=O)O)C(=O)N[C@]1(C)c1ccc(CCC(C)(C)C)c(Cl)c1 [Example 86, 3-{(R)-4-[3-Chloro-4-(3,3-dimethyl-butyl)-phenyl]-5-isopropyl-4-methyl-2-oxo-3,4-dihydro-2H-pyrimidin-1-yl}-propionic Acid]
Human RORγ; [1]
  EC50: 6770 nM
Mouse RORγ; [2]
  EC50: > 8000 nM
Mouse RORγ
  mRORγ luciferase activity, %-of-control: (51%)

## CC(C)(C)CCc1ccc([C@]2(C)NC(=O)N(CCC(=O)O)C=C2[C@H]2C[C@@H](CO)C2)cc1Cl [Example 241]
Human RORγ; [3]
  EC50: 112 nM
Mouse RORγ; [4]
  EC50: 247 nM

## CC(C)C1=CN(CC[C@@H](O)C(=O)O)C(=O)N[C@]1(C)c1ccc(CCC(C)(C)C)c(Cl)c1 [Example 88]
Human RORγ; [1]
  EC50: 443 nM
Mouse RORγ; [2]
  EC50: 422 nM

## CC(C)(C)CCc1ccc([C@@]2(C)NC(=O)N(CCCC(=O)O)C=C2C2CCOCC2)cc1Cl [Example 91]
Human RORγ; [1]
  EC50: 539 nM
Mouse RORγ; [2]
  EC50: 1150 nM

## CC(C)C1=CN(CCC(=O)O)C(=O)N[C@@]1(C)c1ccc(CCC2(F)CCCC2)c(Cl)c1 [Example 301]
Human RORγ; [3]
  EC50: 27 nM
Mouse RORγ; [4]
  EC50: 10 nM

## CC(C)C1=CN(C2CN(C(=O)OC(C)(C)C)CC2C(=O)O)C(=O)N[C@@]1(C)c1ccc(CCC(C)(C)C)c(Cl)c1 (single isomer, unassigned) [Example 237]
Human RORγ; [3]
  EC50: 719 nM
Mouse RORγ; [4]
  EC50: 673 nM

## CC(C)C1=CN([C@H]2C[C@H](CC(=O)O)C2)C(=O)N[C@@]1(C)c1ccc(CCC(C)(C)C)c(Cl)c1 [Example 108]
Human RORγ; [1]
  EC50: 16 nM
Mouse RORγ; [2]
  EC50: 21 nM

## CC(C)C1=CN(CCCC(=O)O)C(=O)N[C@@]1(C)c1ccc(CCC2CCC2)c(Cl)c1 [Example 110]
Human RORγ; [1]
  EC50: 11 nM
Mouse RORγ; [2]
  EC50: 10 nM

## CC(C)(C)CCc1ccc([C@]2(C)NC(=O)N(CCC(=O)O)C=C2C2CC(F)(F)C2)cc1C(F)(F)F [Example 343]
Human RORγ; [3]
  EC50: 38 nM
Mouse RORγ; [4]
  EC50: 19 nM

## CC(C)(C)CCc1ccc(C2NC(=O)N(CCCC(=O)O)C=C2C(C)(C)C)cc1Cl (racemic) [Example 8]
Human RORγ; [1]
  EC50: 21 nM
Mouse RORγ; [2]
  EC50: 22 nM

## CC(C)C1=CN(C2CCC(C(=O)O)C2)C(=O)N[C@@]1(C)c1ccc(CCC(C)(C)C)c(Cl)c1 (single isomer, unassigned) [Example 280]
Human RORγ; [3]
  EC50: 26 nM
Mouse RORγ; [4]
  EC50: 42 nM

## CC(C)C1=CN(CCC(=O)O)C(=O)N[C@@]1(C)c1ccc(CC2CC(F)(F)C2)c(Cl)c1 [Example 282]
Human RORγ; [3]
  EC50: 378 nM
Mouse RORγ; [4]
  EC50: 187 nM

## CC(C)C1=CN(CCC(=O)O)C(=O)N[C@@]1(C)c1ccc(C2CC3(CCC3)C2)c(Cl)c1 [Example 173]
Human RORγ; [1]
  EC50: 22 nM
Mouse RORγ; [2]
  EC50: 11 nM

## CC(C)CC1=CN(CCC(=O)O)C(=O)N[C@@]1(C)c1ccc(CCC(C)(C)C)c(Cl)c1 [Example 137]
Human RORγ; [1]
  EC50: 15 nM
Mouse RORγ; [2]
  EC50: 11 nM

## COCC(C)C1=CN(C23CCC(C(=O)O)(C2)C3)C(=O)N[C@@]1(C)c1ccc(CCC(C)(C)C)c(Cl)c1 (single isomer, unassigned) [Example 352]
Human RORγ; [3]
  EC50: 63 nM
Mouse RORγ; [4]
  EC50: 51 nM

## CC(C)C1=CN(CCC(C)C(=O)O)C(=O)NC1(C)c1ccc(CCC(C)(C)C)c(Cl)c1 (single isomer, unassigned) [Example 25]
Human RORγ; [1]
  EC50: < 32 nM
Mouse RORγ; [2]
  EC50: < 32 nM

## CC(C)C1=CN(CCC(=O)O)C(=O)N[C@@]1(C)c1ccc([C@H]2C[C@@H](C(C)(C)C)C2)c(Cl)c1 [Example 302]
Human RORγ; [3]
  EC50: 28 nM
Mouse RORγ; [4]
  EC50: 30 nM

## CC(C)(C)COc1ccc(C2NC(=O)NC=C2C2CC(C(=O)O)C2)cc1Cl (racemic) [Example 62]
Human RORγ; [1]
  EC50: 665 nM
Mouse RORγ; [2]
  EC50: 520 nM

## COC(=O)[C@H]1C[C@H](N2C=C([C@H]3C[C@@H](CO)C3)[C@](C)(c3ccc(CCC(C)(C)C)c(Cl)c3)NC2=O)C1 (single isomer, unassigned) [Example 312]
Human RORγ; [3]
  EC50: 248 nM
Mouse RORγ; [4]
  EC50: 538 nM

## CC(C)(C)CCc1ccc(C2NC(=O)N([C@H]3C[C@H](C(=O)O)C3)C=C2C(C)(C)C)cc1Cl (single isomer, unassigned) [Example 101]
Human RORγ; [1]
  EC50: 32 nM
Mouse RORγ; [2]
  EC50: 21 nM

## CC(C)C1=CN(C23CCC(C(=O)O)(C2)C3)C(=O)N[C@@]1(C)c1ccc(CCC(C)(C)C)c(Cl)c1 [Example 272]
Human RORγ; [3]
  EC50: 17 nM
Mouse RORγ; [4]
  EC50: 36 nM

## CC(C)C1=CN(c2ccc(C(=O)O)cc2F)C(=O)N[C@@]1(C)c1ccc(CCC(C)(C)C)c(Cl)c1 [Example 207]
Human RORγ; [3]
  EC50: 9 nM
Mouse RORγ; [4]
  EC50: 18 nM

## CC(C)C1=CN(CCC(=O)O)C(=O)N[C@]1(C)c1ccc(C2CCCC2)c(Cl)c1 [Example 155]
Human RORγ; [1]
  EC50: > 8000 nM
Human RORγ
  hRORγ luciferase activity, %-of-control: (83%)
Mouse RORγ; [2]
  EC50: > 8000 nM
Mouse RORγ
  mRORγ luciferase activity, %-of-control: (81%)

## COCC(C)C1=CN(c2ccc(C(=O)O)cc2)C(=O)N[C@@]1(C)c1ccc(CCC(C)(C)C)c(Cl)c1 (single isomer, unassigned) [Example 307]
Human RORγ; [3]
  EC50: 5 nM
Mouse RORγ; [4]
  EC50: 13 nM

## CC(C)C1=CN(CCC(=O)O)C(=O)N[C@@]1(C)c1ccc(CCc2ccccc2)c(Cl)c1 [Example 144]
Human RORγ; [1]
  EC50: > 512 nM
Human RORγ
  hRORγ luciferase activity, %-of-control: (60%)
Mouse RORγ; [2]
  EC50: 37 nM

## CC(C)C1=CN([C@H]2C[C@@H](C(=O)O)C2)C(=O)N[C@]1(C)c1ccc(CCC(C)(C)C)c(Cl)c1 [Example 45]
Human RORγ; [1]
  EC50: 7330 nM
Mouse RORγ; [2]
  EC50: 7510 nM

## CC(C)(C)CCc1ccc([C@]2(C)NC(=O)N(CCCC(=O)O)C=C2C2CC2)cc1Cl [Example 57]
Human RORγ; [1]
  EC50: 31 nM
Mouse RORγ; [2]
  EC50: 22 nM

## CC(C)C1=CN(CCC(=O)O)C(=O)N[C@]1(C)c1ccc(C2CCC2)c(Cl)c1 [Example 152]
Human RORγ; [1]
  EC50: > 20000 nM
Human RORγ
  hRORγ luciferase activity, %-of-control: (56%)
Mouse RORγ; [2]
  EC50: > 20000 nM
Mouse RORγ
  mRORγ luciferase activity, %-of-control: (57%)

## CCCCc1ccc(C2(C)NC(=O)N(CCCC(=O)O)C=C2C(C)C)cc1F (racemic) [Example 70]
Human RORγ; [1]
  EC50: 251 nM
Mouse RORγ; [2]
  EC50: 133 nM

## CC(C)CCSc1ccc([C@]2(C)NC(=O)N(CCC(=O)O)C=C2C(C)C)cc1Cl [Example 218]
Human RORγ; [3]
  EC50: 376 nM
Mouse RORγ; [4]
  EC50: 122 nM

## CC(C)C1=CN(CCC(=O)O)C(=O)N[C@@]1(C)c1ccc(C2CC2C(C)C)c(Cl)c1 (single isomer, unassigned) [Example 174]
Human RORγ; [1]
  EC50: 14 nM
Mouse RORγ; [2]
  EC50: 11 nM

## CC(C)C1=CN(CC2(C(=O)O)CC2)C(=O)N[C@]1(C)c1ccc(CCC(C)(C)C)c(Cl)c1 [Example 97]
Human RORγ; [1]
  EC50: 1340 nM
Mouse RORγ; [2]
  EC50: 3100 nM

## CCC(C)C1=CN(CCCC(=O)O)C(=O)NC1(C)c1ccc(CCC(C)(C)C)c(Cl)c1 (single isomer, unassigned) [Example 34]
Human RORγ; [1]
  EC50: 13 nM
Mouse RORγ; [2]
  EC50: 21 nM

## COCCC1=CN(c2ccc(C(=O)O)c(OC)c2)C(=O)N[C@@]1(C)c1ccc(C2=CCC(C)(C)CC2)c(Cl)c1 [Example 333]
Human RORγ; [3]
  EC50: 23 nM
Mouse RORγ; [4]
  EC50: 13 nM

## CC(C)C1=CN(c2ccc(C(=O)O)cn2)C(=O)N[C@@]1(C)c1ccc(CCC(C)(C)C)c(Cl)c1 [Example 281, 6-{(S)-4-[3-Chloro-4-(3,3-dimethyl-butyl)-phenyl]-5-isopropyl-4-methyl-2-oxo-3,4-dihydro-2H-pyrimidin-1-yl}-nicotinic Acid hydrochloride]
Human RORγ; [3]
  EC50: 14 nM
Mouse RORγ; [4]
  EC50: 21 nM

## CC(C)C1=CN(CCC(=O)O)C(=O)N[C@]1(C)c1ccc(C2=CCC(C)(C)CC2)c(Cl)c1 [Example 115, 3-{(R)-4-[3-Chloro-4-(4,4-dimethyl-cyclohex-1-enyl)-phenyl]-5-isopropyl-4-methyl-2-oxo-3,4-dihydro-2H-pyrimidin-1-yl}-propionic Acid]
Human RORγ; [1]
  EC50: > 8000 nM
Human RORγ
  hRORγ luciferase activity, %-of-control: (110%)
Mouse RORγ; [2]
  EC50: > 8000 nM
Mouse RORγ
  mRORγ luciferase activity, %-of-control: (100%)
